Results on seven compounds are retold here after ChEMBL document CHEMBL3608223, “Quinolizidine alkaloids reduced mortality in EV71-infected mice by compensating for the levels of T cells” (2015).

Calls of active or inactive are those of the source. The rule behind the calls is not given here.

Test [1] concerns Enterovirus A71. The test can be described thus: Antiviral activity against human enterovirus 71 infected in ICR mouse assessed as increase in survival rate at 15 mg/kg, ip qd for 8 days dosed 2 hrs post infection and measured at 14 days post infection relative to control. Format: functional, organism-based.
In test [2] the test system is Mus musculus. Kind of test: Immunoregulatory activity in […] mouse assessed as reduction in NK cells at 60 mg/kg, ip once daily for 8 days by flow cytometry. Format: functional, organism-based. (In flow cytometry, cells or beads pass a laser one at a time.)
The test system of test [3] is Mus musculus. Kind of test: Immunoregulatory activity in […] mouse assessed as reduction in B cells at 60 mg/kg, ip once daily for 8 days by flow cytometry. Format: functional, organism-based.
Test [4] relates to Mus musculus. The test can be described thus: Immunoregulatory activity in […] mouse assessed as increase in CD3+ T cells at 60 mg/kg, ip once daily for 8 days by flow cytometry. Format: functional, organism-based. The settings on record: T-cell.
Test [5] has as its system Mus musculus. The test can be described thus: Immunoregulatory activity in […] mouse assessed as reduction in DC cells at 60 mg/kg, ip once daily for 8 days by flow cytometry. Format: functional, organism-based.
The test system of test [6] is Mus musculus. Kind of test: Immunoregulatory activity in […] mouse assessed as increase in CD8+ T cells at 60 mg/kg, ip once daily for 8 days by flow cytometry. Format: functional, organism-based. The settings on record: T-cell.
Test [7] has as its system Mus musculus. Kind of test: Immunoregulatory activity in […] mouse assessed as increase in CD4+ T cells at 60 mg/kg, ip once daily for 8 days by flow cytometry. Format: functional, organism-based. The settings on record: T-cell.
In test [8] the test system is Enterovirus A71. The test can be described thus: Antiviral activity against human enterovirus 71 infected in ICR mouse assessed as reduction in viral replications in muscle at 15 mg/kg, ip qd for 8 days dosed 2 hrs post infection and measured at 8 days post infection by qRT-PCR method. Format: functional, organism-based. In general terms: Quantitative PCR measures a nucleic acid by following its amplification.

In test [9] the test system is Enterovirus A71. Kind of test: Antiviral activity against human enterovirus 71 infected in ICR mouse assessed as reduction in mouse body weight loss at 15 mg/kg, ip qd for 8 days dosed 2 hrs post infection. Format: functional, organism-based.
For test [10], the system named is Enterovirus A71. The test can be described thus: Antiviral activity against human enterovirus 71 infected in ICR mouse assessed as increase in survival rate at 15 mg/kg, ip qd for 8 days dosed 2 hrs post infection and measured at 14 days post infection. Format: functional.
Test [11] deals with Enterovirus A71. Kind of test: Antiviral activity against human enterovirus 71 infected in ICR mouse assessed as increase in survival rate at 30 mg/kg, ip qd for 8 days dosed 2 hrs post infection and measured at 14 days post infection. Format: functional.
The test system of test [12] is Enterovirus A71. The test can be described thus: Antiviral activity against human enterovirus 71 infected in ICR mouse assessed as reduction in viral infection realted clinical scores at 15 mg/kg, ip qd for 8 days dosed 2 hrs post infection. Format: functional, organism-based.
Test [13] has as its system Enterovirus A71. The test can be described thus: Antiviral activity against human enterovirus 71 infected in ICR mouse assessed as reduction in viral infection related clinical scores at 15 mg/kg, ip qd for 8 days dosed 2 hrs post infection and measured at 8 days post infection. Format: functional, organism-based.
For test [14], the system named is Enterovirus A71. The test can be described thus: Antiviral activity against human enterovirus 71 infected in ICR mouse assessed as reduction in viral infection-induced phenotypic changes by measuring paralysis incidences at 15 mg/kg, ip qd for 8 days dosed 2 hrs post infection and measured at 8 days post infection. Format: functional, organism-based.
In test [15] the test system is Enterovirus A71. The test can be described thus: Antiviral activity against human enterovirus 71 infected in ICR mouse assessed as mouse recovery from infection in 15 mg/kg, ip qd for 8 days dosed 2 hrs post infection and measured at 14 days post infection. Format: functional, organism-based.
Test [16] has as its system Enterovirus A71. Kind of test: Antiviral activity against human enterovirus 71 infected in ICR mouse assessed as reduction in viral infection-induced phenotypic changes by measuring ruffled hair incidences at 15 mg/kg, ip qd for 8 days dosed 2 hrs post infection and measured at 8 days post infection. Format: functional, organism-based.
Test [17] deals with Mus musculus. The test can be described thus: Immunoregulatory activity in […] mouse infected with human enterovirus 71 assessed as increase in CD4+ T cells at 15 mg/kg, ip once daily for 8 days by flow cytometry and measured at 8 days post infection. Format: functional, organism-based. To be noted: T-cell.
The subject of test [18] is Mus musculus. Kind of test: Immunoregulatory activity in […] mouse infected with human enterovirus 71 assessed as increase in CD3+ T cells at 15 mg/kg, ip once daily for 8 days by flow cytometry and measured at 8 days post infection. The settings on record: T-cell. Format: functional, organism-based.
In test [19] the test system is Enterovirus A71. The test can be described thus: Antiviral activity against human enterovirus 71 infected in ICR mouse assessed as increase in survival rate at 7.5 mg/kg, ip qd for 8 days dosed 2 hrs post infection and measured at 14 days post infection. Format: functional.
Test [20] relates to Mus musculus. Kind of test: Immunoregulatory activity in […] mouse infected with human enterovirus 71 assessed as increase in CD8+ T cells at 15 mg/kg, ip once daily for 8 days by flow cytometry and measured at 8 days post infection. Format: functional, organism-based. To be noted: T-cell.
Test [21] has as its system Enterovirus A71. Kind of test: Antiviral activity against human enterovirus 71 infected in ICR mouse assessed as increase in survival rate at 50 mg/kg, ip qd for 8 days dosed 2 hrs post infection and measured at 14 days post infection. Format: functional.

Consider `O=C1CCC[C@@H]2[C@H]3CCC[N+]4([O-])CCC[C@@H](CN12)[C@@H]34` (stereo partly specified), for which the outcome in the test on Enterovirus A71 [1], in the test with Mus musculus [2], in the test on Mus musculus [3], in the test on Mus musculus [4], in the test on Mus musculus [5] and in the test with Mus musculus [6] was Active. The result in the test on Mus musculus [7] was Active.

`O=C1C=CC[C@@H]2[C@H]3CCCN4CCC[C@@H](CN12)[C@@H]34`: the outcome with Enterovirus A71 [1], with Mus musculus [2], with Mus musculus [3], in the test on Mus musculus [4], in the test with Mus musculus [5] and in the test on Mus musculus [6] was Active. For the same compound, the result in the test with Mus musculus [7] was Active.

`O=C1C=CC[C@@H]2[C@H]3CCC[N+]4([O-])CCC[C@@H](CN12)[C@@H]34` (stereo partly specified) [OXYSOPHOCARPINE]: the result in the test on Enterovirus A71 [8], in the test on Enterovirus A71 [1], in the test with Enterovirus A71 [9], in the test with Enterovirus A71 [12], with Enterovirus A71 [13] and in the test with Mus musculus [2] was Active. Besides, the result with Enterovirus A71 [14], with Enterovirus A71 [15], with Mus musculus [3], in the test on Enterovirus A71 [16], with Mus musculus [17] and in the test on Mus musculus [18] was Active. Besides, the outcome with Mus musculus [4], with Mus musculus [5], with Mus musculus [20], in the test on Mus musculus [6] and in the test with Mus musculus [7] was Active. The figures for the Activity in the test on Enterovirus A71 [10], with Enterovirus A71 [11] and in the test on Enterovirus A71 [19] were 30%, 25% and 25%, respectively.

`O=C1CCC[C@@H]2[C@H]3CCCN4CCC[C@@H](CN12)[C@@H]34`: the outcome in the test on Enterovirus A71 [1], in the test with Mus musculus [2], in the test on Mus musculus [3], with Mus musculus [4], in the test on Mus musculus [5] and in the test on Mus musculus [6] was Active. Besides, the outcome with Mus musculus [7] was Active.

Take `NC(=O)c1ncn([C@@H]2O[C@H](CO)[C@@H](O)[C@H]2O)n1` [RIBAVIRIN]: in the test with Enterovirus A71 [21], the Activity is reported as 15%.

As to `O=c1cccc2n1C[C@@H]1CCCN3CCC[C@H]2[C@H]13`, the outcome with Enterovirus A71 [1], in the test on Mus musculus [2], with Mus musculus [3], in the test on Mus musculus [4], with Mus musculus [5] and with Mus musculus [6] was Active. Moreover, the outcome with Mus musculus [7] was Active.

For `O=C1CCC[C@@H]2[C@H]3CCCN4CCC[C@H](CN12)[C@@H]34`, the outcome in the test on Enterovirus A71 [1], in the test with Mus musculus [2], in the test with Mus musculus [3], in the test on Mus musculus [4], with Mus musculus [5] and with Mus musculus [6] was Active. In the test on Mus musculus [7], the outcome was Active.
